Test results as given in US20230416684A1, “COMPOSITION FOR PREVENTING OR TREATING MUSCLE DISEASES, CONTAINING STEM CELLS IN WHICH GRO-ALPHA IS EXPRESSED OR GRO-ALPHA” (SAMSUNG LIFE PUBLIC WELFARE FOUNDATION, priority 2020, published 2023).

Columns and labels:
[1] = tested on: necrosis markers in C2C12 cells; assay: Western blotting of necrosis markers in lovastatin death-induced C2C12 cells treated with GRO-α at different concentrations; assay type: cell-based, mouse; conditions: FIGS. 4C and 4D
Description: To confirm the inhibitory effects of the PL-MSCs and WJ-MSCs on the cell death, apoptosis markers and necrosis markers expressed in the mouse skeletal muscle myoblasts were confirmed by western blotting. In detail, after collecting the cells and breaking the cell membrane by using a buffer in which RIPA buffer and urea buffer were mixed at a ratio of 1:1, centrifugation was performed thereon, and the supernatant thus obtained was collected and subjected to the Bradford assay (Bio-rad, USA) to quantify proteins in the cells. After loading 20 μg of the proteins of from each sample on a gel, electrophoresis was performed on the gel by using SDS. After transferring the proteins to a polyvinylidene fluoride (PVDF) membrane, a 1× tris-buffered saline with 0.1% Tween 20 (TBST) solution to which 5% skimmed milk (BD Difco, USA) was added, followed by culturing at room temperature for 1 hour. Afterwards, the proteins were treated with PARP (1:1000, Cell signaling, USA), cleaved caspase-3 (1:1000, Cell signaling, USA), phospho-RIP3 (1:1000, Cell signaling, USA), and phospho-MLKL (1:1000, Cell signaling, USA) and beta actin (1:5000; Santa Cruz, USA) antibodies, followed by culturing overnight at 4° C. Next, the proteins were treated with secondary antibodies (anti-Rabbbit IgG-HRP; ABCIon, Korea) at room temperature for 1 hour, and blots were developed by using ECL (Bio-rad, USA). […]

C2C12 cells [2] = assay: Cell morphology and cell viability of lovastatin death-induced C2C12 cells treated with GRO-α at different concentrations; assay type: cell-based, mouse
[3] = tested on: MDX mouse (a mouse model for duchenne muscular dystrophy); assay: Activity of creatine kinase in serum of MDX mouse injected with WJ-MSC or GRO-α; assay type: in vivo; conditions: intravenous and intraperitoneal injection, serum after one week, FIG. 6A
Description: (§1) Based on the results of Examples 1 to 3, the efficacy of GRO-α on prevention or treatment of muscle diseases was confirmed in an MDX mouse (a mouse model for duchenne muscular dystrophy). In detail, the MDX mouse was intravenously and intraperitoneally injected with each of WJ-MSC and GRO-α. After one week, blood was collected from the heart of the mouse, centrifuged at 15,500×g for 10 minutes to separate serum, and then, activity of creatine kinase was measured.

[4] = tested on: necrosis markers in C2C12 cells; assay: Western blotting of necrosis markers in lovastatin death-induced C2C12 cells treated with GSK′872 and GRO-α individually or in combination; assay type: cell-based, mouse; conditions: FIGS. 5C and 5D
phospho-RIP3 = assay: Western blot of phospho-RIP3 in muscles of MDX mouse injected with WJ-MSCs or GRO-α; assay type: in vivo; conditions: muscles of MDX mouse after injection; protein level, FIG. 6C
Description: as §1
(§2) The expression levels of necrosis markers in muscles of the […] injected with WJ-MSCs and GRO-α were confirmed in Example 4-1. In detail, the muscle tissue of the mouse was ground with liquid nitrogen into a minimum size in a mortar, added to an E-tube, and then subjected to sonication with lysis buffer (urea+RIPA=1:1). Afterwards, the supernatant was collected, and proteins in the tissue were quantified according to the Bradford assay (Bio-rad, USA). Then, proteins were detected by using western blot.

phospho-MLKL = assay: Western blot of phospho-MLKL in muscles of MDX mouse injected with WJ-MSCs or GRO-α; assay type: in vivo; conditions: muscles of MDX mouse after injection; protein level, FIG. 6B
Description: as §1, §2

C2C12 cells [5] = assay: Cell morphology and cell viability of lovastatin death-induced C2C12 cells treated with GSK′872 and GRO-α individually or in combination; assay type: cell-based, mouse; conditions: GRO-α 200 μg/mL; for cell proliferation (cell morphology) / cell viability: GSK 3 μm pretreatment 3 hours; for cell proliferation (cell morphology): cultured for 48, FIG. 5A; for cell viability: cultured for 48, FIG. 5B
Description: Inhibitory effects of GSK′827 and GRO-α, known as […] that block the RIP-3 pathway, on cell death of skeletal muscle myoblasts were compared. In detail, skeletal muscle myoblasts of the cell death-induced mouse by lovastatin treatment were pretreated with 3 μm of GSK′827 for 3 hours, followed by washing with 1×PBS. The medium was replaced by a serum-free medium, and GRO-α was diluted therein to a final concentration of […]/mL. Then, the cells were treated with GRO-α and GSK′827 individually or in combination, followed by culturing for 48 to observe the cell morphology.

Compound | expression of necrosis markers [1] | cell viability, among concentration groups (C2C12 cells [2]; group treated with 100 ng/mL of GRO-α, FIG. 4B) | cell proliferation rate (C2C12 cells [2]; lovastatin death-induced C2C12 cells treated with GRO-α, FIG. 4A) | cell viability (C2C12 cells [2]; lovastatin death-induced C2C12 cells, after 24 hours of treatment with GRO-α, FIG. 4B) | activity of creatine kinase, decrease [3] [%] | inhibitory effect on the expression of necrosis markers compared to GSK′872 [4] | expression of markers involved in necrosis compared to the control group ([4]; GRO-α 200 μg/mL) | expression of phospho-RIP3, decrease (phospho-RIP3) [%] | expression of phospho-MLKL, decrease (phospho-MLKL) [%] | cell viability compared to the group treated with GSK′872 (C2C12 cells [5]; FIG. 5B) | cell proliferation (cell morphology) (C2C12 cells [5]) | cell viability (C2C12 cells [5])
growth-regulated oncogene-alpha (GRO-α) | inhibited the expression of the necrosis markers in a concentration-dependent manner | the highest | increased | significantly increased | 75 | excellent inhibitory effect | reduced the expression of all markers involved in necrosis | 70 | 76 | high | proliferated | significant increase
CC(C)S(=O)(=O)c1ccc2nccc(Nc3ccc4scnc4c3)c2c1 [GSK′872, reference compound] | – | – | – | – | – | – | – | – | – | – | proliferated | significant increase
